Measurements reported in ChEMBL document CHEMBL1156829 (Proc Natl Acad Sci U S A, 2008).

What was measured:
Plasmodium falciparum [1] = assay: NOVARTIS: Inhibition of Plasmodium falciparum 3D7 (drug-susceptible) proliferation in erythrocyte-based infection assay; format: functional, organism-based; conditions: Plasmodium falciparum, 3D7
Plasmodium falciparum [2] = assay: NOVARTIS: Inhibition of Plasmodium falciparum W2 (drug-resistant) proliferation in erythrocyte-based infection assay; format: functional, organism-based; conditions: Plasmodium falciparum, W2; read-out: EC50
[3] = NOVARTIS: Cytotoxicity against human hepatocellular carcinoma cell line (Huh7); format: toxicity, cell-based, Huh-7; conditions: Huh7 cells (hepatocellular carcinoma cell line)

| SMILES | EC50 (Plasmodium falciparum [1]) | EC50 (Plasmodium falciparum [2]) | CC50 [3] |
| --- | --- | --- | --- |
| COc1ccc2nc(C)cc(Nc3ccc(Cl)c(Cl)c3)c2c1 | 0.249 µM | 0.426 µM | 6.25 µM |
| O=C(Nc1ccc(-c2cnc(-c3ccc(NC(=O)c4cccc([N+](=O)[O-])c4)cc3)nc2)cc1)c1cccc([N+](=O)[O-])c1 | > 0.48 µM | 0.681 µM | > 10 µM |
| Oc1ccc(-c2ccc(F)cc2)cc1CNCCN1CCOCC1 | 0.901 µM | 0.681 µM | > 10 µM |
| COc1ccc(C2SCCN2S(=O)(=O)c2cccc([N+](=O)[O-])c2)cc1OC (stereo unspecified) | > 1.25 µM | > 0.676 µM | > 10 µM |
| CCCCNC(=O)CCCNC(=O)Cn1cnc2sc3c(c2c1=O)CCCC3 | > 1.25 µM | > 0.683 µM | > 10 µM |
| CC(C)CN(C(C(=O)NC(CN1CCCC1)c1ccccc1)c1ccccc1)S(=O)(=O)c1ccccn1 (stereo unspecified) | 1.32 µM | 0.682 µM | > 10 µM |
| CC(C)NC(=O)c1ccc2c(c1)N=C(/C=C/c1ccccc1)N(CC1CCCCC1)C2 | > 1.25 µM | 0.696 µM | > 10.2 µM |
| Cc1cc(Oc2ncnc(N(C)CC(=O)OC(C)(C)C)c2[N+](=O)[O-])c2nncn2n1 | > 1.63 µM | > 0.684 µM | > 10 µM |
| CCOC(=O)N1CCN(S(=O)(=O)c2ccc(C(=O)Nc3sc4c(c3C(N)=O)CCN(CC)C4)cc2)CC1 | > 12.5 µM | 1.39 µM | 20.4 µM |
| CCN(CC)CCCC(C)Nc1nc(/C=C/c2ccccc2OC)nc2cc(Cl)ccc12 (stereo unspecified) | 0.878 µM | 0.688 µM | > 10 µM |
| Cc1ccc(-c2c3c(nc4sc(C(=O)Nc5ccc(Cl)cc5)c(N)c24)CCCC3)o1 | 8.31 µM | 6.78 µM | > 100 µM |
| COc1ccc(Nc2nc(Nc3ccc(OC)cc3)c3[nH]ccc3n2)cc1 | 0.667 µM | 0.678 µM | > 10 µM |
| CC(=O)Nc1ccc(NC2=CC(=NS(=O)(=O)c3ccccc3)c3ccccc3C2=O)cc1 | 0.509 µM | 0.466 µM | 6.88 µM |
| Cc1nnc2sc(SCc3cccc([N+](=O)[O-])c3)nn2c1=O | > 1.07 µM | 0.942 µM | > 13.9 µM |
| CCn1c(C)cc(/C=C2\C(=O)NC(=O)N(c3cccc(Cl)c3)C2=O)c1C | > 0.674 µM | 0.679 µM | > 10 µM |
| Clc1ccccc1Nc1nc2nonc2nc1Nc1cccc(Br)c1 | > 1.25 µM | > 0.678 µM | > 10 µM |
| Cc1cc(NS(=O)(=O)c2ccc(NC(=O)c3ccc([N+](=O)[O-])cc3)cc2)no1 | > 1.25 µM | > 0.678 µM | > 10 µM |
| COc1cccc(CCN2Cc3ccc(C(=O)NC(C)C)cc3N=C2c2ccc(C)cc2)c1 | 0.938 µM | 0.68 µM | > 10 µM |
| NC(=O)C(Cc1ccccc1)Nc1ccc([N+](=O)[O-])cc1[N+](=O)[O-] (stereo unspecified) | 0.883 µM | 0.68 µM | > 10 µM |
| COc1ccc(NC(=O)Cn2c(-c3ccc(OC)cc3)cn(-c3ccc(C)cc3)c2=O)cc1 | 0.889 µM | > 0.676 µM | > 10 µM |
| Cc1ccc(Sc2c(C)nn(C(=O)c3cccnc3)c2C)cc1 | 0.322 µM | > 0.677 µM | > 10 µM |
| Cc1oc2c(c1C(=O)NCC1CCCO1)C(=O)c1ccccc1C2=O (stereo unspecified) | 1.19 µM | 0.481 µM | 6.93 µM |
| CCc1ccc(NC(=O)CSc2nc(C)cc(C)c2C#N)cc1 | > 1.25 µM | > 0.694 µM | > 10 µM |
| CCN(CC(=O)N1CCc2cc(OC)c(OC)cc2C1C)C(=O)Nc1ccc(Br)cc1 (stereo unspecified) | > 1.25 µM | > 0.692 µM | > 10 µM |
| Cc1cccc(Nc2ccccc2C(=O)OCC(=O)N2CC(=O)Nc3ccccc32)c1C | 4.71 µM | 3.82 µM | 55.1 µM |
| O=C1N(c2ccccc2)C[C@@H]2C[C@@H](c3ccc4nsnc4c3)N3CCC[C@@]123 | 0.888 µM | 0.641 µM | 9.25 µM |

| SMILES | EC50 (Plasmodium falciparum [1]) | EC50 (Plasmodium falciparum [2]) | CC50 [3] |
| --- | --- | --- | --- |
| Cc1ccc(NC(=O)c2cc(C(=O)c3cc(Cl)ccc3O)cn(-c3ccc(C)c(C)c3)c2=O)cc1C | 8.07 µM | 6.9 µM | > 100 µM |
| COC(=O)c1c(C)oc2ccc(N(C(=O)c3ccc(C)cc3)S(=O)(=O)c3ccccc3)cc12 | > 1.68 µM | 0.69 µM | > 10 µM |
| CCCS(=O)(=O)N1CCC(CO)(Cc2ccccc2C(F)(F)F)CC1 | 1.25 µM | 0.692 µM | > 10 µM |
| COc1cc(NC(C)CCCN(Cc2ccccc2OC)C(=O)COCc2ccccc2)c2ncccc2c1 (stereo unspecified) | 1.11 µM | 0.689 µM | > 10 µM |
| O=C(Nn1c(SCc2cc(=O)n3ccccc3n2)nc2ccsc2c1=O)c1cccc(Br)c1 | > 0.928 µM | > 0.695 µM | > 10 µM |
| COc1cncc(-c2cncc(N3CCN(CCN(C)C)CC3)n2)c1 | 0.261 µM | 0.695 µM | > 10 µM |
| COc1cc(C=CC(=O)Nc2ccc3nc(N4CCN(c5ncccn5)CC4)cc(C)c3c2)cc(OC)c1OC | 0.841 µM | 0.505 µM | 7.42 µM |
| CCCCCCN(C(=O)c1cccc(F)c1)C(CC)c1nc2ccccc2c(=O)n1-c1ccccc1OC (stereo unspecified) | 1.07 µM | 0.509 µM | > 7.32 µM |
| CN1CCN(c2cc(-c3cccnc3)nc(-c3ccncc3)n2)CC1 | 0.588 µM | 0.656 µM | > 9.55 µM |
| O=C(Nc1ccc(-c2cn3ccsc3n2)cc1)c1ccc(S(=O)(=O)N2CCCCCC2)cc1 | 0.634 µM | 1.23 µM | 17.6 µM |
| Cc1cccc(CN2CCC(CNC(=S)Nc3ccc4nc(N5CCN(C)CC5)cc(C)c4c3)CC2)c1 | > 9.9 µM | 6.76 µM | > 100 µM |
| CC(C)CNc1nc(NCCCn2ccnc2)ncc1C(=O)NCCc1ccccc1 | 0.274 µM | 0.696 µM | > 10 µM |
| COc1ccc(C=NNc2cc(C)nc(-c3ccccc3)n2)cc1OC | 8.51 µM | 3.3 µM | 48.9 µM |
| Cc1c(Cl)cccc1N1C(=O)C2C3c4ccccc4C(c4ccccc43)C2C1=O (stereo unspecified) | > 1.61 µM | 0.686 µM | > 10 µM |
| COC(=O)C(C)NC(=O)c1ccc(F)cc1 (stereo unspecified) | > 1.25 µM | 0.681 µM | > 10 µM |
| CC(=O)N(Cc1ccc(F)cc1)C1=C(NCc2ccccc2)C(=O)c2ccccc2C1=O | 0.68 µM | 0.679 µM | > 10 µM |
| Cc1ccc(CN2C3CCCC2CC(NC(=O)Nc2cccc(F)c2)C3)cc1 (stereo unspecified) | 0.898 µM | 0.695 µM | > 10 µM |
| CCC(C)(C)c1ccc(OCCOCC[n+]2ccccc2)c(C(C)(C)CC)c1 | 0.96 µM | 0.844 µM | 12.2 µM |
| Cc1sc2c(c1C)CN(Cc1ccco1)CN2C(=O)c1ccco1 | > 12.5 µM | > 6.91 µM | > 100 µM |
| COc1cc(NC(C)CCCN(Cc2ccc(OC)c(OC)c2)C(=O)c2ccccc2C)c2ncccc2c1 (stereo unspecified) | 0.867 µM | 0.831 µM | > 12.2 µM |
| Cc1ccc(NC(=O)C2C3C=CC4(O3)C2C(=O)N(Cc2cccnc2)C4C(=O)NC2CCCCC2)cc1 (stereo unspecified) | > 1.64 µM | 0.682 µM | > 10 µM |
| O=C(CCl)Nc1ccc(N2CCCCCC2)cc1 | 1.26 µM | 1.33 µM | 19.7 µM |
| COc1ccc(N(C)C(=O)CNC(=O)c2nn(-c3ccc(OC)cc3OC)c(=O)c3ccccc23)cc1 | > 1.25 µM | > 0.685 µM | > 10 µM |
| Cc1ccc(CN2CCC(O)(c3ccc4oc(C(=O)NCCc5cccc(F)c5)cc4c3)CC2)cc1 | 4.16 µM | 3.01 µM | 43.5 µM |
| CC(C)[C@@]1(NC(=O)[C@@H]2C[C@@H]3c4cccc5[nH]cc(c45)C[C@H]3N(C)C2)O[C@@]2(O)[C@@H]3CCCN3C(=O)[C@H](CC3CCCCC3)N2C1=O | 1.16 µM | 0.768 µM | > 11.4 µM |
| O=c1[nH]nc(SCc2c(F)cccc2[N+](=O)[O-])c(=O)[nH]1 | > 1.25 µM | > 0.695 µM | > 10 µM |
